From publication PMC8976073 (Nature Communications, 2022)
Where a chain is given by its changes, count along the chain named.

What was measured:
FPR2 [1] = target: T1, FPR2 (Homo sapiens, UniProt P25090); test: Inositol-phosphate (IP) accumulation assay, FPR2 (wild type and mutants) with chimeric GαΔ6qi4myr in HEK293F cells; type: cell-based; conditions: FPR2 WT; mean ± SEM; SEM
T1 construct: expressed in transfected cells; host or cells: HEK293F cells, pTT5 vector, co-transfected with GαΔ6qi4myr (1:2 w/w)
T1 sequence (P25090 1-351): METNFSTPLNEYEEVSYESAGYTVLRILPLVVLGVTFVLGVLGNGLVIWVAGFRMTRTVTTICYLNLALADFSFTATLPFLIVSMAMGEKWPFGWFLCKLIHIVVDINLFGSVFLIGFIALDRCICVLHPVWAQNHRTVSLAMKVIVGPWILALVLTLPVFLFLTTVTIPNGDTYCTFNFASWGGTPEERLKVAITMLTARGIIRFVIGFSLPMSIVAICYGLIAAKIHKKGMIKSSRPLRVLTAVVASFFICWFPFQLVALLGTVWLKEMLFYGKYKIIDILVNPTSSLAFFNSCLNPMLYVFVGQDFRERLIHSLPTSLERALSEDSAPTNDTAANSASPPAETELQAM
Protocol: (§1) Flag-tagged wild-type FPR1 and FPR2 and mutants were cloned into the pTT5 vector and expressed in HEK293F cells. Cells were cotransfected with the plasmids of receptor and a chimeric Gα protein GαΔ6qi4myr, which redirects the Gαi signaling pathway to the Gαq phospholipase-C pathway, at a ratio of 1:2 (w/w), and were harvested 48 h post transfection. The cell-surface expression was measured as described above.
(§2) The IP-One Gq assay kit (Cisbio Bioassays, 62IPAPEB) was used to measure the peptide agonist-induced IP production. […] Then, the cells were supplemented with 3 μl cryptate-labeled anti-IP1 monoclonal antibody (1:20 diluted in lysis and detection buffer) and 3 μl d2-labeled IP1, and incubated at room temperature for another 1 h. […] The accumulation of IP1, EC50, and pEC50 were calculated using nonlinear regression (curve fit) according to a standard dose–response curve in GraphPad Prism 8.0 (GraphPad software).

FPR2 [2] = target: T2, FPR2 (Homo sapiens, UniProt P25090, F110A); test: as above; type: cell-based; conditions: FPR2 F110A
T2 construct: expressed in transfected cells; host or cells: HEK293F cells, pTT5 vector, co-transfected with GαΔ6qi4myr (1:2 w/w)
T2 sequence (P25090 1-351 F110A): T1 sequence (P25090 1-351) with F110A
Protocol: as §1, §2

EC50 (FPR2 [1]): 126 nM
EC50 (FPR2 [2]): 110 nM
SMILES: CC[C@H](C)[C@H](NC(=O)[C@H](CCC(=O)O)NC(=O)[C@H](CO)NC(=O)[C@@H](NC(=O)[C@H](CC(C)C)NC(=O)[C@H](CC(C)C)NC(=O)[C@H](CC(C)C)NC(=O)[C@H](CC(C)C)NC(=O)[C@H](CS)NC(=O)[C@H](CO)NC(=O)[C@H](Cc1ccccc1)NC(=O)CNC(=O)[C@H](CCCNC(=N)N)NC(=O)[C@@H]1CCCN1C(=O)[C@H](C)NC(=O)[C@H](CCSC)NC=O)[C@@H](C)O)C(=O)N[C@@H](CC(=O)O)C(=O)N[C@@H](CC(C)C)C(=O)N1CCC[C@H]1C(=O)N[C@H](C(=O)N[C@@H](CCCCN)C(=O)N[C@@H](CCCNC(=N)N)C(=O)N[C@@H](CCCNC(=N)N)C(=O)N[C@@H](C)C(=O)O)C(C)C [fHN, N-formyl humanin]
